Results on ten compounds are retold here after patent publication US5837479A, “Screening assays for inhibitors of mammalian prostaglandin H synthase-2” (priority 1995, dated 1998).

The subject of data set [1] is 72-74 kDa protein doublet, BALB/c 3T3 fibroblasts. Conditions: cited from earlier work.
For data set [2], the system named is 2.8-kb PGHS mRNA (PGHS-1), human monocytes. Type of data set: cell-based. The method, then: (§1) FIGS. 3A-3B are a photographic depiction of autoradiographies obtained by Northern blotting monitoring the expression of the genes encoding griPGHS and the constitutive PGHS-1, as expressed in human monocytes, in response to interleukin-1 treatment, a known mediator of inflammation. Adherent human monocytes isolated from healthy donors were suspended in medium without serum at 1×10^6 cells/ml. One ml aliquots in 5 ml polypropylene tubes were incubated with loosened caps in 5% CO2 at 37° C. with occasional shaking. FIGS. 3A-3B are more fully described as follows:
(§2) Five μg was subjected to Northern blot analysis with the indicated probes.
(§3) Cycloheximide (25 μM) was added to one set of incubations 15 min prior to he addition of cytokine or hormone.
(§4) Poly-A enriched RNAs (2.5 μg) from C127 cells were fractionated by formaldehyde-agarose gel electrophoresis and transferred to a membrane (Duralon, Stratagene). Hybridization was carried out as previously described by O'Banion et al., 1991, J. Virol., 65:3481-3488, using the 5' 1.2 kb EcoR1 fragment of the 4.1 kb cDNA labeled with ^32 P by random priming as disclosed by Feinberg et al., 1983, Anal. Biochem., 132:6-13. The membrane was later rehybridized with a similarly labeled portion (1.6 kb 5' end) of the 2.8 kb ovine PGHS cDNA (Oxford Biomedical Research, Inc.), and an end-labeled 40-mer complimentary to β-tubulin (Oncor). RNA molecular weight markers (Life Technologies) were visualized by ethidium bromide staining. A similar analysis was performed on total RNA (5 µg/lane) isolated from human monocytes by the guanidinium-acid-phenolextraction method of Chomczynski et al., 1987, Anal. Biochem., 162:156-159.
(§5) Adherent human monocytes isolated from healthy donors as described by Roberts et al., 1978, J. Immunol, 121:1052-1058, were suspended in M199 medium without serum at 1×10^6 cells/ml. One ml aliquots in 5 ml polypropylene tubes were incubated with loosened caps in 5% CO2 at 37° C. with occasional shaking. […] Five μg RNA was subjected to Northern blot analysis as described by O'Banion et al., 1991, J. Biol. Chem., 34:23261-23267 with the indicated probes labeled by random priming (kit from Boehringer-Mannheim) to a specific activity >1×10^9 cpm/μg. […] Cycloheximide (25 μM; Sigma) was added to one set of incubations 15 min prior to the addition of cytokine or hormone.

The subject of data set [3] is griPGHS mRNA (4.8-kb mRNA), human monocytes. Type of data set: cell-based. Conditions: for griPGHS mRNA increase relative to control: IL-1β 10 half-maximal units. As for the experimental part:
as §1, §2, §3, §4, §5

In data set [4] the test system is C127 mouse fibroblasts (protein synthesis). Put plainly: inhibition of protein synthesis in C127 mouse fibroblasts. It counts as cell-based. Conditions: C127, 0.25 h, within 15 min. An excerpt: C127 mouse fibroblasts were obtained from Peter Howley (NIH) and propagated in high glucose Dulbecco's modified Eagle's medium supplemented with 10% fetal bovine serum (HyClone Laboratories) without antibiotics. See, Lowy et al., 1978, J. Virol., 26:291-298. Cultures were monitored for mycoplasma contamination by Hoechst 33258 staining in accord with the procedure of Chen, 1977, Exp. Cell Res., 104:255-262.
Exponentially growing, subconfluent (60-80%) cell monolayers (35-mm plates) were labeled in Dulbecco's modified Eagle's medium without methionine (Life Technologies) plus 200 μCi/ml Tran^35 S-label (>1,000 Ci/mmol; ICN) for 15 or 30 min. In some cases, fresh fetal calf serum (10%) was present during the labeling period. Monolayers were rinsed twice with ice-cold Dulbecco's modified Eagle's medium (DMEM) with methionine prior to lysis in 200 μl of A8 buffer (9.5M urea, 2% (w/v) Nonidet P-40, 2% (w/v) ampholines (LKB, 1.6% pH range 5-8, 04. % pH range 3.5-10), 5% (w/v) 2-mercaptoethanol). Incorporation of label into proteins was determined by trichloroacetic acid precipitation. […] The calcium ionophore A23187 (Calbiochem) was used at a concentration of 5 μM from a 2.5 mM stock in ethanol. Cycloheximide (Sigma) was used at a concentration of 25 μM from a 100 X stock in water. This level inhibited protein synthesis by >97% within 15 min. […]

The test system of data set [5] is 2.8-kb mRNA encoding PGHS-1. The data set can be described thus: level of 2.8-kb PGHS-1 mRNA in C127 mouse fibroblasts. Type of data set: cell-based. The following applies: C127 cells.
In data set [6] the test system is 4-kb mRNA (PGHS-2). The data set can be described thus: level of 4-kb PGHS-2 mRNA in C127 mouse fibroblasts. It counts as cell-based. The following applies: C127 cells. The source says: Three of four potential N-glycosylation sites are conserved between the two molecules and there is particularly high similarity in the regions surrounding a putative axial heme-binding domain (amino acids 273-342) and the region around the presumed aspirin modified-serine^516 (amino acids 504-550). By far the largest difference in the two cDNAs is the presence of a 2.1 kb 3' untranslated region in the 4.1 kb cDNA. This region is rich in 5'-AUUUA-3' motifs that are associated with the decreased stability of many cytokine and protooncogene mRNAs. The presence of these motifs is consistent with the profound superinducibility of the 4.1 kb mRNA by cycloheximide, which is not observed for the 2.8 kb mRNA.

The test system of data set [7] is cystic fibrosis lung disease. The following applies: high-dose, cystic fibrosis patients; cited from earlier work.
The subject of data set [8] is familial polyposis (colon polyps). Conditions: patients with familial polyposis; cited from earlier work.
Data set [9] deals with PGHS-2 expression, astrocytes. Conditions: cultured murine and rat astrocytes; cited from earlier work.
Data set [10] has as its system COS cells. The data set can be described thus: toxicity to COS cells. Conditions: 800 μg/ml Geneticin (active component 657 μg/ml). It counts as cell-based, monkey. The method, then: Sixty-mm plates of 50% confluent COS-A2 (monkey-kidney) cells, which contain little or no cyclooxygenase activity were transfected with 1-2.5 μg of purified pRC/CMV;hPGHS-2 plasmid, pRC/CMV;hPGHS-1 plasmid or the PRC/CMV vector alone by a calcium phosphate precipitation method (Chen et al., 1987, Mol. Cell. Biol., 7:2745-2752. Plates were incubated at 35° C., 3% CO2 for 24 hr in normal media (Dulbecco's modified Eagle Media (DMEM)+10% fetal bovine serum). After two rinses with warm DMEM, plates were transferred to 37° C., 5% CO2 for an additional 24 hr. Selection was then started with normal media containing 800 μg/ml of Geneticin (active component G418, 657 μg/ml, Life Technologies), a concentration which is toxic for COS cells. […] Twelve to twenty-four colonies from each transfection were isolated using cloning cylinders. The majority of these survived continued G418 selection during clonal cell-line expansion.

In data set [11] the test system is human PGHS-2 (versus human PGHS-1). The data set can be described thus: NSAID inhibition of human PGHS-2 activity in stably transformed COS cells (4B4), compared with human PGHS-1 cells (H17A5). Conditions: 30 min preincubation, 15 min arachidonic acid; FIGS. 8A-8D and 9A-9D. It counts as cell-based. The method, then:
PGHS-1 and PGHS-2 cell lines (including 4B4 and H17A5) were exposed to various concentrations of NSAID for 30 min in serum-free DMEM. […] Controls consisted of no drug treatment and cells treated with the maximal concentrations of drug vehicles (1% methanol or ethanol). […] Cyclooxygenase activity was determined as described herein above.

Data set [12] relates to preterm labor. Conditions: in vivo; cited from earlier work.
Data set [13] relates to colorectal carcinoma. The following applies: several clinical trials; cited from earlier work.

Where two headings read alike, the source gives them in different places.

For platelet-derived growth factor, in data set [1], the “synthesis of 72-74 kDa protein doublet” value is on record as “transiently increased”.
Take `C[C@@H]1C[C@@H]([C@H](O)CC2CC(=O)NC(=O)C2)C(=O)[C@@H](C)C1` [cycloheximide]: the “levels of 2.8-kb mRNA relative to β-tubulin” value in data set [2] (IL-1β, dexamethasone or cycloheximide treatment) was “not significantly altered”. The “superinduction of 4.8-kb mRNA” value in data set [3] (cycloheximide 25 μM, added 15 min before cytokine or hormone) is recorded as “superinduction of the 4.8-kb mRNA was clearly evident”. The inhibition at 25 µM in [4] was more than 97%. The “change in 2.8-kb PGHS-1 mRNA level” value in data set [5] is listed as “no change”. For the same compound, the “accumulation of 4-kb mRNA” value in data set [6] is recorded as “accumulates to significant levels”.
Turning to `CC(C)Cc1ccc(C(C)C(=O)O)cc1` (stereo not shown) [ibuprofen], the “progression of lung disease” value in data set [7] is recorded as “slows the progression of lung disease”.
In the case of `CC1=C(CC(=O)O)c2cc(F)ccc2/C1=C\c1ccc([S+](C)[O-])cc1` (stereo not shown) [Sulindac], the colon polyp regression result in [8] is given as “colon polyp regression”.
In the case of TNFα, in data set [9], the “regulation of PGHS-2 expression in astrocytes” value is recorded as “strongly up-regulated” and the “time of peak PGHS-2 mRNA level” value was 2 h.
Turning to “IL-1β: IL-1β (10 half-maximal units, Collaborative Research), a known mediator of inflammation”, the “levels of 2.8-kb mRNA relative to β-tubulin” value in data set [2] was “not significantly altered”. The “griPGHS mRNA increase relative to control” value in data set [3] (4 hr) came out at 2.5 fold. The “griPGHS mRNA increase relative to control” value in [3] (12 hr) was 14 fold. Besides, in data set [9], the “regulation of PGHS-2 expression in astrocytes” value is “strongly up-regulated” and the “time of peak PGHS-2 mRNA level” value is 2 h.
Consider `CN[C@@H]1[C@@H](O)[C@@H](O[C@@H]2[C@@H](O)[C@H](O[C@H]3O[C@H]([C@@H](C)O)[C@@H](O)[C@H](O)[C@H]3N)[C@@H](N)C[C@H]2N)OC[C@]1(C)O` [G418], for which the “toxicity for COS cells” value in data set [10] is given as “toxic”.
As to `COc1ccc2c(c1)c(CC(=O)O)c(C)n2C(=O)c1ccc(Cl)cc1` [indomethacin], the “levels of drug required for inhibition, PGHS-1 versus PGHS-2 cells” value in [11] is on record as “different for the cells expressing PGHS-1 versus those expressing PGHS-2”. In addition, the “premature closure of the ductus arteriosus of the fetus” value in data set [12] is “raises concern with premature closure of the ductus arteriosus”.
Take `C[C@@H]1C[C@H]2[C@@H]3CCC4=CC(=O)C=C[C@]4(C)[C@@]3(F)[C@@H](O)C[C@]2(C)[C@@]1(O)C(=O)CO` [dexamethasone]: the “level of 2.8-kb PGHS mRNA” value in [2] (4 hr, normalized to β-tubulin) is listed as “not affected”. For the same compound, in [5], the “change in 2.8-kb PGHS-1 mRNA level” value is listed as “no change”.
Take `CC(=O)Oc1ccccc1C(=O)O` [aspirin]: the “levels of drug required for inhibition, PGHS-1 versus PGHS-2 cells” value in data set [11] was “different for the cells expressing PGHS-1 versus those expressing PGHS-2”. The “colon tumor growth and death” value in data set [13] was “decreased colon tumor growth and death”.
